Reference: patent US12551482B2, “Aurora kinase inhibitors” (The Regents of the University of California, priority 2013, dated 2026)
Entries after “also recorded” stand apart in the source; their conditions may differ. Where two headings read alike, the source gives them in different places.

Experiments:
[1] = tested on: HN; assay: Cancer cell line profiling, Genomics of Drug Sensitivity Project; format: cell-based; conditions: read-out: CD532 EC50 (uM), Head & Neck
[2] = tested on: HSC-2; assay: as above; conditions: Homo sapiens, HSC-2, read-out: CD532 EC50 (uM)
[3] = Pharmacokinetics of CD532 in mice; format: in vivo; conditions: mouse, serum, ip, 20 mg/kg, intraperitoneal injection
[4] = molecular target: T1, MYCN-Aurora A complex (Homo sapiens, UniProt O14965); assay: Pulldown of MYCN and immunoblot for Aurora A; format: cell-based; conditions: MYCN-amplified IMR32 cells, 4 hrs MG-132, 2 hrs drug, increasing concentrations
T1 construct: Representative immunoprecipitation of MYCN and immunoblots from MYCN-amplified IMR32 cells; endogenous in cells
T1 sequence (O14965 whole entry, one chain of several): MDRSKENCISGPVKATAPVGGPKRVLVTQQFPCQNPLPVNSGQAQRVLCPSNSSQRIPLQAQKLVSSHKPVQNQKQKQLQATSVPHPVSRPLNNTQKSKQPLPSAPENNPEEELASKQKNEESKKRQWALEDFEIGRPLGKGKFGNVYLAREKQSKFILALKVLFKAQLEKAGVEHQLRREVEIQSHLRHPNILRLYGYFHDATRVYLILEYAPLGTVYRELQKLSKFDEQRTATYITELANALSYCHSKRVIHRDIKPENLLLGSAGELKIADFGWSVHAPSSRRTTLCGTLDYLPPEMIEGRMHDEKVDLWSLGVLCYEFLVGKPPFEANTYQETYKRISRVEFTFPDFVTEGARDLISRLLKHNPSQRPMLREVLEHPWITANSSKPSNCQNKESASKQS

[5] = tested on: IGR-37; assay: Cancer cell line profiling, Genomics of Drug Sensitivity Project; conditions: Homo sapiens, IGR-37, read-out: CD532 EC50 (uM)
[6] = tested on: GAK; assay: as above; conditions: read-out: CD532 EC50 (uM)
[7] = tested on: RPMI-7951; assay: as above
[8] = tested on: MZ7-mel; assay: as above
[9] = tested on: MYCN amplified neuroblastoma cells; assay: Cell cycle by flow cytometry; format: cell-based; conditions: 4 or 6 hrs of treatment
Experimental: (§1) Neuroblastoma cells were treated for the indicated time, trypsinized, washed, stained with Dylight 800 at 0.3 μg/mL (Pierce, 46421), fixed with 1.5% PFA, and permeabilized with 100% methanol. Cells were then stained with antibodies against p-MPM2 (Millipore, 16-155), p-pan-Aurora (Cell Signaling, 2914), MYCN (Thermo, PA5-17403), rabbit IgG (Invitrogen, A10542), or mouse IgG (BioLegend, 405307). Cells were stained with DAPI at 0.3 μg/mL (Invitrogen, D21490) and analyzed on the BD LSR II flow cytometer. For cell cycle analysis, cells were stimulated with EdU for 2 hours prior to harvest, then probed using the Click-iT EdU Flow Cytometry Assay Kit (Invitrogen, C10424). Cells were stained with propidium iodide (BD, 556547) and analyzed on the BD FACSCalibur flow cytometer. Data was gated using Cytobank. For viability studies, neuroblastoma cells were plated in 96-well plates at a density of 1,000 cells/well for SHEP or 4,000 cells/well for Kelly or SK—N-BE2 cells, then incubated with indicated concentrations of drug for 72 hours at 37° C. Plates were frozen at −80° C. to induce cell lysis. CyQUANT reagent mixture (Invitrogen, C7026) was added to thawed plates, then fluorescence was measured. Alternatively, resazurin (Sigma-Aldrich, R7017) was added directly to wells following drug treatment then incubated for 4 hours at 37° C. prior to measuring fluorescence. Data was analyzed using GraphPad Prism software.

[10] = tested on: SNU-423; assay: Cancer cell line profiling, Genomics of Drug Sensitivity Project; conditions: Homo sapiens, SNU-423, read-out: CD532 EC50 (uM)
[11] = tested on: MKN28; assay: as above; conditions: Homo sapiens, MKN-28, read-out: CD532 EC50 (uM)
[12] = tested on: CL-11; assay: as above; conditions: CL-11, read-out: CD532 EC50 (uM)
[13] = tested on: WM793B; assay: as above; conditions: read-out: CD532 EC50 (uM)
[14] = tested on: SCH; assay: as above; conditions: read-out: CD532 EC50 (uM)
[15] = tested on: K5; assay: as above; conditions: read-out: CD532 EC50 (uM)
[16] = tested on: NH-12; assay: as above; conditions: read-out: CD532 EC50 (uM)
[17] = tested on: phospho-pan-Aurora; assay: Phospho-pan-Aurora by flow cytometry; format: cell-based; conditions: 1 μM, 6 hrs (FIG. 6C)
Experimental: as §1

[18] = tested on: BICR 10; assay: Cancer cell line profiling, Genomics of Drug Sensitivity Project; conditions: read-out: CD532 EC50 (uM)
[19] = tested on: Detroit 562; assay: as above; conditions: Homo sapiens, Detroit 562, read-out: CD532 EC50 (uM)
[20] = tested on: MYCN; assay: Dose response immunoblot for MYCN in MYCN-amplified neuroblastoma cell lines (SK-N-BE(2), SMS-KCN, Kelly); format: cell-based; conditions: multiple cell lines, 24 hrs (FIGS. 1D and 7)
Experimental: Neuroblastoma tumor cell lines were obtained from the University of California San Francisco Cell Culture Facility (Kelly, SK-N-BE2, and SH-EP). SMS-KCN, SHEP MYCN^wt and MYCN^T58A/S62A cells were obtained. All cells were grown in RPMI with 10% FBS. Neuroblastoma cells were harvested and lysed with Cell Signaling Lysis buffer+1% SDS, sonicated and supernatants boiled in LDS sample buffer (Invitrogen). Western blots were performed as described previously (Chanthery et al., 2012), with primary antibodies to MYCN (ab24193, Abcam), Histone H3, P-Histone H3 (S10), Aurora A (Cell signaling), and GAPDH (Millipore). Western blot quantitation performed with ImageJ software.

[21] = tested on: LOXIMVI; assay: Cancer cell line profiling, Genomics of Drug Sensitivity Project
[22] = tested on: HO-1-N-1; assay: as above; conditions: read-out: CD532 EC50 (uM)
[23] = tested on: A101D; assay: as above; conditions: Homo sapiens, read-out: CD532 EC50 (uM)

Work on `O=C(Nc1ccc(Nc2nccc(Nc3cc(C4CCCC4)[nH]n3)n2)cc1)Nc1cccc(C(F)(F)F)c1` [CD532, 1-(4-((4-((5-cyclopentyl-1H-pyrazol-3-yl)amino)pyrimidin-2-yl)amino)phenyl)-3-(3-(trifluoromethyl)phenyl)urea] yielded an EC50 [1] of 1.63 µM, an EC50 [2] of 2.15 µM and a half-life [3] of about 1.5 h. The AUC(0-t) ([3]; read-out: AUC0-24) was 27 µM·h, the “MYCN-Aurora A interaction” value [4] was “complete and dose-dependent loss of Aurora A/MYCN interaction; also recorded: dose-dependent and complete dissociation of the MYCN-Aurora A complex” and the EC50 [5] was 0.547 µM. The EC50 [6] was 0.823 µM, the EC50 ([7]; Homo sapiens, RPMI-7951, read-out: CD532 EC50 (uM), RPMI-7951 cell line, Skin) was 1.06 µM and the EC50 ([7]; read-out: CD532 EC50, RPMI-7951 cell line, Skin) was 0.952 µM. The EC50 ([8]; read-out: CD532 EC50 (uM), MZ7-mel cell line, Skin) was 0.73 µM, the EC50 ([8]; read-out: CD532 EC50, MZ7-mel cell line, Skin) was 0.556 µM and the cell cycle effect [9] was “potent loss of S-phase entry”. It also gave an EC50 [10] of 0.753 µM, an EC50 [11] of 10.1 µM and an EC50 [12] of 4.93 µM. For the same compound, the EC50 [13] was 0.705 µM, the EC50 [14] was 1.24 µM and the EC50 [15] was 1.33 µM. For the same compound, the EC50 [16] was 0.37 µM, the phospho-pan-Aurora [17] was “loss of phospho-pan-Aurora” and the EC50 [18] was 4.27 µM. The EC50 [19] was 1.25 µM, the “MYCN protein, dose response” value [20] was “dose dependent loss of MYCN protein” and the EC50 ([21]; Homo sapiens, LOX IMVI, read-out: CD532 EC50 (uM), LOXIMVI cell line, Skin) was 0.732 µM. The EC50 ([21]; read-out: CD532 EC50, LOXIMVI cell line, Skin) was 0.384 µM, the EC50 [22] was 1.67 µM and the EC50 [23] was 0.429 µM.
